{
  "source": "paper PMC4861903",
  "about": "“Synthesis of a highly water-soluble acacetin prodrug for treating experimental atrial fibrillation in beagle dogs” (Scientific Reports, 2016)",
  "target": "T1, IKACh (acetylcholine-activated K+ current) (Rattus norvegicus, UniProt P48548+P63251)",
  "T1 construct": "endogenous in cells; host or cells: atrial myocytes dissociated from male Sprague-Dawley rats",
  "T1 sequence (P63251 1-501)": "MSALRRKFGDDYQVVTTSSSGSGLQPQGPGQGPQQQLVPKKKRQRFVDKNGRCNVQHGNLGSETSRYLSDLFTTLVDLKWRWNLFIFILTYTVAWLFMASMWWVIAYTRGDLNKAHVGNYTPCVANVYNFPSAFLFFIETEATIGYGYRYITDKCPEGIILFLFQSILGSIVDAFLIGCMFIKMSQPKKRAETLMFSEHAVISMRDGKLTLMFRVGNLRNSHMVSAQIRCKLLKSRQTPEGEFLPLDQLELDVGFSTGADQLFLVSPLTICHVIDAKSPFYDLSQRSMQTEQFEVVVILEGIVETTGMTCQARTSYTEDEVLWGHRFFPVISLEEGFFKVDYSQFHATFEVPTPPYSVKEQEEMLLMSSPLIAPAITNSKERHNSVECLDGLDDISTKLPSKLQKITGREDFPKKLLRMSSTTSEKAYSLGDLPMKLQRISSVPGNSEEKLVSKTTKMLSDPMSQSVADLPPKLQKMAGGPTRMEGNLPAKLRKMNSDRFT",
  "T1 sequence (P48548 1-419)": "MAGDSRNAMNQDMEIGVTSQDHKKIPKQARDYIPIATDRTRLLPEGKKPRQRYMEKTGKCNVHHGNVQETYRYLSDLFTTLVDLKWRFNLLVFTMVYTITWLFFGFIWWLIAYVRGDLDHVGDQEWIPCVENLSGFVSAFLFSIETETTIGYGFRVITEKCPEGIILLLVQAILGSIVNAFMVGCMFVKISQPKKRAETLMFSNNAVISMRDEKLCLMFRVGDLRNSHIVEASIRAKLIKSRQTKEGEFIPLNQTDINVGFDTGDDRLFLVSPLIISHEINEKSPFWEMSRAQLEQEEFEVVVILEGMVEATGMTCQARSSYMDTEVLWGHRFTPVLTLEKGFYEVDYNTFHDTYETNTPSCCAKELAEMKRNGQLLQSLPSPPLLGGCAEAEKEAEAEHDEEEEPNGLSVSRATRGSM",
  "test": "Whole-cell IKACh elicited by 5 μM carbachol in rat atrial myocytes",
  "format": "cell-based",
  "conditions": "30 μM, at −100 mV, n = 5",
  "procedure": "Whole-cell currents of hKv1.5 and hKv4.3 were recorded in established HEK 293 cell lines stably expressing hKv1.5 (KCN5A) and hKv4.3 (KCND3) and IKACh was determined in isolated rat atrial myocytes as described previously[12][31][32] and in Supplemental Materials. […]\nEffects of acacetin prodrug on cardiac potassium currents […]\nCells on a coverslip were transferred to an open cell chamber (0.5 ml) mounted on the stage of an inverted microscope and superfused with Tyrode’s solution at 2 mL/min. The whole cell patch-clamp technique was used as described previously.1, 2 The whole-cell membrane currents were measured using an EPC-10 amplifier and Pulse software (Heka Elektronik, Lambrecht, Germany). Borosilicate glass electrodes (1.2-mm OD) were pulled with a Brown/Flaming puller (model P-97, Sutter Instrument, Nato, CA) and had resistances of 1.5~2.5 MΩ when filled with the pipette solution. A 3-M KCl agar bridge was used as the reference electrode. The tip potential was zeroed before the patch pipette contacted the cell. After a giga-Ohm seal was obtained, the cell membrane was ruptured by applying gentle pressure to establish a whole-cell configuration. […] The liquid junction potential (14.7 mV) calculated with the software Clampex was not corrected in the experiment and data […]\nWhole-cell current of IKACh was determined in isolated rat atrial myocytes. […]",
  "data": [
    {"smiles": "COc1ccc(-c2cc(=O)c3c(O)cc(OP(=O)([O-])[O-])cc3o2)cc1.[Na+].[Na+]", "note": "[acacetin prodrug, phosphate sodium salt of acacetin]", "values": [
      {"measurement": "inhibition of IK.ACh", "value": "no significant inhibition"}
    ]}
  ]
}
